Assay [1] deals with MOG35-55/CFA induced EAE. In words: MOG35-55/CFA induced EAE model of multiple sclerosis. Format: in vivo, mice. The method, then: FIG. 2. MIP treatment reduces severity of EAE. Mice were immunized with MOG35-55/CFA with PTX administration at day 0 and at 48 h. Groups of mice were treated with MIP (SEQ ID NO: 1, squares) or PBS (triangles) and mean clinical score was calculated.
FIG. 8. 4×4MyDI lowers disease in mouse EAE model. Mice were immunized with MOG35-55/CFA with PTX administration at day 0 and at 48 h. Groups of mice were treated with 4×4MyDI (squares, n=7) or PBS as control (circles, n=4) from day 0, three times a week.
FIG. 15. 4×4MyDI reduces severity of EAE. C57BL/6 mice were immunized with MOG35-55/CFA and administered pertussis toxin on day zero and after 48 h. Groups of mice were treated with 4×4MyDI at 4 mg/kg from day zero, three times a week, for a total of 9 treatments (squares, n=7) or an identical volume of PBS as control, using the same schedule of administration (circles, n=7). […] Clinical disease was scored daily. ***P<0.0001, 2-way ANOVA.
Effective peptides are examined for treatment of mice with EAE (the animal model of MS) applying several disease models. One model is described in Owens T. and Sriram S. Neurologic Clinics (1995) 13(1):51-73. In this model, C57B1 mice are immunized with the MOG protein in adjuvant and the onset of paralysis which appears 10-14 days following the induction, is evaluated daily. Two groups of animals are treated with two doses of the peptide administered orally by cannula on a daily basis, from the day of EAE-induction. One month after the disease onset, the animals are sacrificed and their brains and spinal cords are processed for histopathological analysis (performed by a blinded for the treatment arm, neuropathologist). This includes the evaluation of the number of inflammatory infiltrates and the number of cells per infiltrate, the degree of demyelination and of axonal damage. Another EAE model for MS which can be used for the compounds of the present invention and for identifying additional Myd88 inhibitors is described in Prinz et al 2006, J Clin Investigation, 116, 2 456-464, and Cohen et al 2010, J Immunol 184(1):212-21). In this model, C57B1 mice are immunized with MOG35-55 peptide ([…], SEQ ID NO: 4) emulsified in complete Freund's adjuvant (CFA) and pertussis toxin is administered systemically at the time of immunization and 48 h later. Mice are treated with the Myd88 inhibitor systemically and the mice are followed for development of ascending paralysis which typically begins on day 8-10 following immunization.
The effect of MIP administration on the clinical outcome of MOG35-55/CFA induced EAE was tested. […]
Following bioactivity characterization in vitro, the lead compound was evaluated for efficacy using the in vivo murine MOG35-55-induced EAE model of multiple sclerosis. […]

The test system of assay [2] is T cells responding to the self-antigen MOG35-55. In words: Cytokine response of draining lymph node cells of treated EAE mice to MOG35-55. The settings on record: 4 mg/Kg three times per week until day 11; ex vivo restimulation. It is filed as in vivo. The method, then:
FIGS. 16A and 16B. inhibition of IFNγ and IL-17 secretion in 4×4MyDI treated mice. C57BL/6 mice were immunized with MOG35-55/CFA and administered pertussis toxin on day zero and after 48 h. Groups of mice were treated with 4×4MyDI at 4 mg/kg from day zero, three times a week, and animals were sacrificed on day 11 after immunization. Control mice were treated with an equal volume of PBS using the same schedule of administration. Single cell suspensions from draining lymph nodes were stimulated with different concentrations of MOG35-55 peptide (SEQ ID NO: 4) for three days and supernatants were collected for analysis of cytokines by ELISA.
Of note, IFNγ and IL-17 are considered pro-inflammatory cytokines that are highly detrimental in the autoimmune process.

The test system of assay [3] is OCI-LY3 (MyD88 L265P) cells. Description: Proliferation of lymphoma cells (Promega CellTiter viability assay). Format: cell-based, human. The settings on record: 48 h; compared with OCI-LY19 (MyD88 WT). The method, then: FIGS. 18A and 18B. 4×4MyDI and Myr-4×4MyDI block proliferation of Ly3 lymphoma cells that carry the L265P oncogenic mutation in MyD88. Cell lines OCI-LY3 (MyD88^L265P) and OCI-LY19 (MyD88^WT) were grown in RPMI supplemented with 10% FCS. Cells were counted and plated at identical concentrations in triplicate wells of 96 well plates and decreasing concentrations of 4×4MyDI […], or Myr-4×4MyDI (19B), was added to the wells. After 48 h cell viability was tested using the Promega CellTiter viability assay according to the manufacturer's instructions. Percent inhibition was calculated as [(1-OD of well with inhibitor/OD of well without inhibitor)*1001. Negative values in A represent enhanced growth in the presence of the inhibitor.
Genomic DNA was prepared from the human lymphoma cell lines OCI-LY3 (MyD88^L265P) and OCI-LY19 (MyD88^WT) to confirm the presence of the activating L265P mutation in the OCI-Ly3 cells (and the WT sequence in the OCI-Ly19 cells). The MyD88 region was amplified using the forward and reverse primers GGGATATGCTGAACTAAGTTGCCAC (SEQ ID NO: 7) and GACGTGTCTGTGAAGTTGGCATCTC (SEQ ID NO: 8), respectively, as described in Xu, L. et al Blood (2013) 121(11): 2051-2058. The PCR product was sequenced to confirm the mutation.
The cell lines were incubated alone or with increasing concentrations of the 4×4MyDI. […]

Molecules are shown by their SMILES. Entries after “also recorded” stand apart in the source; their conditions may differ. Numbered stars: 1 amine (or outer) side, 2 acyl side, 3 side chain; on linkers, the order of the positions; unused ones are H or OH. Bridge positions count the residues as written; N and C are the ends. Square brackets hold non-standard residues; d marks the D form. Peptide text beside a SMILES is read from it. CO = O=C([*:1])[*:2]; Nlys = NCCCCNCC(=O)O

As to `CC(C)C[C@@H]1NC(=O)[C@H](C(C)C)NC(=O)[C@H](CC(=O)O)NC(=O)[C@H](CCCNC(=N)N)NC(=O)CN(C(=O)[C@@H](N)Cc2c[nH]c3ccccc23)CCCCNC(=O)NCCCCN(CC(=O)NCC(=O)N[C@H](C(N)=O)[C@@H](C)O)C1=O` [4×4MyDI] (H-W[Nlys]RDVL[Nlys]GT-NH2; linker 2-7 via CO; N-terminus assumed), the EAE disease severity result is given as “significant reduction in disease severity; also recorded: significantly reduced disease severity” in assay [1] (4 mg/Kg i.p. three times a week from day 0); “behaved similarly to the control group” in assay [1] (4 mg/Kg i.p. three times a week from day 7); “reduced disease severity even further” in assay [1] (40 mg/Kg on day zero and day three only). The survival entry in assay [1] (4×4MyDI from day 0, three times a week, vs PBS) is “better rate of survival”. For the same molecule, the “IFNγ produced by T cells responding to MOG35-55” value in assay [2] is “complete inhibition”. In addition, in assay [2], the “IL-17 produced by T cells responding to MOG35-55” value is listed as “complete inhibition”. The “proliferation of OCI-Ly3 cells” value in assay [3] is recorded as “specifically blocked proliferation”.
